According to ChEMBL document CHEMBL5584347, “Development of Nitric Oxide Releasing Oxoisoaporphines with Antidepressant Activities by Simultaneously Regulating MAO-A and SERT” (J Med Chem, 2024):
Activity calls are given as the source filed them. No cut-off for these calls is given here.

How the values were obtained:
[1] = Cytotoxicity against human L02 cells incubated for 24 hrs by MTT assay; format: toxicity, cell-based
[2] = Cytotoxicity against human SH-SY5Y cells incubated for 24 hrs by MTT assay; format: toxicity, cell-based
[3] = Cytotoxicity against rat PC-12 cells incubated for 24 hrs by MTT assay; format: toxicity, cell-based
PC-12 = assay: Neuroprotective activity against corticosterone-induced cell injury in rat PC-12 cells assessed as increase in cell viability at 0.1 to 1 uM incubated for 24 hrs by CCK8 assay; format: functional, cell-based; details: dose 0.1-1 µM
Mus musculus [4] = assay: Upregulation of 5-HT level in mouse at 10 mg/kg in presence of oxoisoaporphines; format: functional, organism-based
Mus musculus [5] = assay: Upregulation of 5-HT level in mouse at 10 mg/kg in presence of isosorbide mononitrate; format: functional, organism-based
Danio rerio [6] = assay: Antidepressant activity in reserpine-induced depressive zebrafish model assessed as increase in total distance traveled at 1 uM preadministered with reserpine for 40 mins followed by compound administration and measured after 7 days by open field test; format: functional, organism-based; details: time 7.0 day
Danio rerio [7] = assay: Antidepressant activity in reserpine-induced depressive zebrafish model assessed as increase in speed of movement at 1 uM preadministered with reserpine for 40 mins followed by compound administration and measured after 7 days by open field test; format: functional, organism-based; details: time 7.0 day
Danio rerio [8] = assay: Antidepressant activity in reserpine-induced depressive zebrafish model assessed as reduction in immobility time at 1 uM preadministered with reserpine for 40 mins followed by compound administration and measured after 7 days by open field test; format: functional, organism-based; details: time 7.0 day
Danio rerio [9] = assay: Antidepressant activity in reserpine-induced depressive zebrafish model assessed as increase in total distance traveled at 1 uM preadministered with reserpine for 40 mins followed by compound administration and measured after 7 days by novel tank test; format: functional, organism-based; details: time 7.0 day
Danio rerio [10] = assay: Antidepressant activity in reserpine-induced depressive zebrafish model assessed as increase in speed of movement at 1 uM preadministered with reserpine for 40 mins followed by compound administration and measured after 7 days by novel tank test; format: functional, organism-based; details: time 7.0 day
Danio rerio [11] = assay: Antidepressant activity in reserpine-induced depressive zebrafish model assessed as increase in time spend in upper part at 1 uM preadministered with reserpine for 40 mins followed by compound administration and measured after 7 days by novel tank test; format: functional, organism-based; details: time 7.0 day
Mus musculus [12] = assay: Antidepressant activity in chronic unpredictable mild stress induced depressive C57 mouse model assessed as increase in total distance traveled at 10 mg/kg administered continuously for 2 weeks post 5 weeks of chronic unpredictable mild stress by open field test; format: functional, organism-based
Mus musculus [13] = assay: Antidepressant activity in chronic unpredictable mild stress induced depressive C57 mouse model assessed as increase in movement at 10 mg/kg administered continuously for 2 weeks post 5 weeks of chronic unpredictable mild stress by open field test; format: functional, organism-based
Mus musculus [14] = assay: Antidepressant activity in reserpine induced depressive mouse model assessed as 5-HT level in brain at 10 mg/kg preadministered with reserpine for 3 days followed by compound addition from day 4 to 10 by LC-MS analysis (reference value: 186.46 ng/ml); format: functional; details: time 7 day

**Q.** For O=C1c2ccccc2-c2nccc3cc(OCCCCO[N+](=O)[O-])cc1c23, which IC50 at 24 h [1] is on record?
**A.** Its IC50 at 24 h is over 100 µM.

**Q.** What about the IC50 at 24 h [2] of the same molecule?
**A.** Its IC50 at 24 h is over 100 µM.

**Q.** And the IC50 at 24 h [3]?
**A.** The IC50 at 24 h was over 10 µM.

**Q.** And the Activity (PC-12)?
**A.** The Activity was “Active”.

**Q.** For O=C1c2ccccc2-c2nccc3cc(OCCCCCOc4no[n+]([O-])c4S(=O)(=O)c4ccccc4)cc1c23, which IC50 at 24 h [1] is on record?
**A.** The IC50 at 24 h was over 100 µM.

**Q.** What about the IC50 at 24 h [2] of the same molecule?
**A.** Its IC50 at 24 h is over 100 µM.

**Q.** And the IC50 at 24 h [3]?
**A.** Its IC50 at 24 h is over 10 µM.

**Q.** What about the Activity (PC-12) of the same molecule?
**A.** Its Activity is “inactive”.

**Q.** For O=[N+]([O-])O[C@@H]1CO[C@H]2[C@@H]1OC[C@@H]2O, which Activity (Mus musculus [4]) is on record?
**A.** Its Activity is “Active”.

**Q.** Which IC50 at 24 h [1] does the source give for O=C1c2ccccc2-c2nccc3cc(OCCCCCCOc4no[n+]([O-])c4S(=O)(=O)c4ccccc4)cc1c23 here?
**A.** Its IC50 at 24 h is over 100 µM.

**Q.** What about the IC50 at 24 h [2] of the same molecule?
**A.** Its IC50 at 24 h is over 100 µM.

**Q.** And the IC50 at 24 h [3]?
**A.** The IC50 at 24 h was over 10 µM.

**Q.** What about the Activity (PC-12) of the same molecule?
**A.** The Activity was “inactive”.

**Q.** With O=C1c2ccccc2-c2nccc3cccc1c23 as the molecule, how does the Activity (Mus musculus [5]) read?
**A.** The Activity was “Active”.

**Q.** Which IC50 at 24 h [1] does the source give for O=C1c2ccccc2-c2nccc3cc(OCCCCCO[N+](=O)[O-])cc1c23 here?
**A.** Its IC50 at 24 h is over 100 µM.

**Q.** What about the IC50 at 24 h [2] of the same molecule?
**A.** Its IC50 at 24 h is over 100 µM.

**Q.** And the IC50 at 24 h [3]?
**A.** The IC50 at 24 h was over 10 µM.

**Q.** What about the Activity (PC-12) of the same molecule?
**A.** The Activity was “Active”.

**Q.** What does the source list for O=C1c2ccccc2-c2nccc3cc(OCCCCOc4no[n+]([O-])c4S(=O)(=O)c4ccccc4)cc1c23?
**A.** IC50 at 24 h [1]: > 100 µM; IC50 at 24 h [2]: > 100 µM; IC50 at 24 h [3]: > 10 µM; Activity (PC-12): inactive

**Q.** With O=C1c2ccccc2-c2nccc3cc(OCCO[N+](=O)[O-])cc1c23 as the molecule, how does the IC50 at 24 h [1] read?
**A.** Its IC50 at 24 h is over 100 µM.

**Q.** And the IC50 at 24 h [2]?
**A.** The IC50 at 24 h was over 100 µM.

**Q.** What about the IC50 at 24 h [3] of the same molecule?
**A.** The IC50 at 24 h was over 10 µM.

**Q.** What about the Activity (PC-12) of the same molecule?
**A.** Its Activity is “Active”.

**Q.** Which results are given for CNCCC(Oc1ccc(C(F)(F)F)cc1)c1ccccc1 (configuration not stated) [FLUOXETINE]?
**A.** Activity (Danio rerio [6]): Active; Activity (Danio rerio [7]): Active; Activity (Danio rerio [8]): Active; Activity (Danio rerio [9]): Active; Activity (Danio rerio [10]): Active; Activity (Danio rerio [11]): Active; Activity (Mus musculus [12]): Active; Activity (Mus musculus [13]): Active; Activity (Mus musculus [14]): 223.45 ng/mL

**Q.** Which IC50 at 24 h [1] does the source give for O=C1c2ccccc2-c2nccc3cc(OCCOc4no[n+]([O-])c4S(=O)(=O)c4ccccc4)cc1c23 here?
**A.** Its IC50 at 24 h is over 100 µM.

**Q.** And the IC50 at 24 h [2]?
**A.** Its IC50 at 24 h is over 100 µM.

**Q.** What about the IC50 at 24 h [3] of the same molecule?
**A.** The IC50 at 24 h was over 10 µM.

**Q.** And the Activity (PC-12)?
**A.** Its Activity is “inactive”.

**Q.** Which IC50 at 24 h [1] does the source give for O=C1c2ccccc2-c2nccc3cc(OCCCCCCO[N+](=O)[O-])cc1c23 here?
**A.** The IC50 at 24 h was over 100 µM.

**Q.** And the IC50 at 24 h [2]?
**A.** The IC50 at 24 h was over 100 µM.

**Q.** And the IC50 at 24 h [3]?
**A.** The IC50 at 24 h was over 10 µM.

**Q.** What about the Activity (PC-12) of the same molecule?
**A.** The Activity was “Active”.

**Q.** For O=C1c2ccccc2-c2nccc3cc(OCCCOc4no[n+]([O-])c4S(=O)(=O)c4ccccc4)cc1c23, which IC50 at 24 h [1] is on record?
**A.** Its IC50 at 24 h is over 100 µM.

**Q.** And the IC50 at 24 h [2]?
**A.** Its IC50 at 24 h is over 100 µM.

**Q.** And the IC50 at 24 h [3]?
**A.** Its IC50 at 24 h is over 10 µM.

**Q.** What about the Activity (PC-12) of the same molecule?
**A.** The Activity was “inactive”.
